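48-hour exposure; five concentrations; linearly interpolated endpoints. At the GI50, growth is halved. TGI: concentration producing complete growth inhibition.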
How the values were obtained:
Experiment in all cases: DTP human tumour cell line panel, 48 h
[1] = system: SW-620 colon
[2] = system: NCI-H522 lung
[3] = system: MOLT-4 leukemia
[4] = system: A498 renal
[5] = system: SK-MEL-5 melanoma
[6] = system: KM12 colon
[7] = system: OVCAR-8 ovarian
[8] = system: MCF7 breast
[9] = system: M14 melanoma
[10] = system: MDA-MB-468 breast
[11] = system: HCT-116 colon
[12] = system: OVCAR-4 ovarian
[13] = system: SK-MEL-28 melanoma
[14] = system: SNB-19 CNS
[15] = system: HS 578T breast
[16] = system: ACHN renal
[17] = system: K-562 leukemia
[18] = system: PC-3 prostate
[19] = system: NCI-H23 lung
[20] = system: SN12C renal
[21] = system: HOP-62 NSCLC
[22] = system: EKVX NSCLC
[23] = system: NCI-H226 lung
[24] = system: CCRF-CEM leukemia
[25] = system: A549 NSCLC
[26] = system: OVCAR-5 ovarian
[27] = system: CAKI-1 renal
[28] = system: NCI-H460 lung
[29] = system: HT29 colon
[30] = system: T-47D breast
[31] = system: NCI/ADR-RES ovarian
[32] = system: HCT-15 colon
[33] = system: RPMI-8226 leukemia
[34] = system: BT-549 breast
[35] = system: HL-60(TB) leukemia
[36] = system: SK-MEL-2 melanoma
[37] = system: RXF 393 renal
[38] = system: LOX IMVI melanoma
[39] = system: SF-295 CNS
[40] = system: SF-539 CNS
[41] = system: HCC-2998 colon
[42] = system: SF-268 CNS
[43] = system: UACC-62 melanoma
[44] = system: IGROV1 ovarian
[45] = system: U251 CNS
[46] = system: SNB-75 CNS
[47] = system: COLO 205 colon
[48] = system: UACC-257 melanoma
[49] = system: DU-145 prostate
[50] = system: SK-OV-3 ovarian
[51] = system: HOP-92 NSCLC
[52] = system: MDA-MB-435
[53] = system: 786-0 renal
[54] = system: MALME-3M melanoma
[55] = system: OVCAR-3 ovarian
[56] = system: TK-10 renal

## COc1ccc2[nH]c(=O)c(CSc3nccc(-c4ccc(Cl)cc4)n3)cc2c1
[1]
  GI50: 20.6 µM
  TGI: 45.9 µM
[2]
  GI50: 14.8 µM
  TGI: 28.5 µM
[3]
  GI50: 12 µM
  TGI: > 100 µM
[4]
  GI50: 23.8 µM
  TGI: 63 µM
[5]
  GI50: 13.6 µM
  TGI: 31.3 µM
[6]
  GI50: 29.2 µM
  TGI: 90.9 µM
[7]
  GI50: 16.8 µM
  TGI: 32.4 µM
[8]
  GI50: 17 µM
  TGI: 33.5 µM
[9]
  GI50: 17.6 µM
  TGI: 34.2 µM
[10]
  GI50: 12.5 µM
  TGI: 26.1 µM
[11]
  GI50: 13 µM
  TGI: 26.8 µM
[12]
  GI50: 18.5 µM
  TGI: 64.9 µM
[13]
  GI50: 20.6 µM
  TGI: 51.6 µM
[14]
  GI50: 18 µM
  TGI: 43.5 µM
[15]
  GI50: 26 µM
  TGI: > 100 µM
[16]
  GI50: 16.8 µM
  TGI: 40.1 µM
[17]
  GI50: 27.8 µM
  TGI: > 100 µM
[18]
  GI50: 19 µM
  TGI: > 100 µM
[19]
  GI50: 18.9 µM
  TGI: 42.5 µM
[20]
  GI50: 15.2 µM
  TGI: 32.9 µM
[21]
  GI50: 16.5 µM
  TGI: 34.3 µM
[22]
  GI50: 31.2 µM
  TGI: > 100 µM
[23]
  GI50: 18.5 µM
  TGI: 59.9 µM
[24]
  GI50: 77.1 µM
  TGI: > 100 µM
[25]
  GI50: 14.6 µM
  TGI: 30.8 µM
[26]
  GI50: 24.7 µM
  TGI: 93 µM
[27]
  GI50: 15.8 µM
  TGI: 37.7 µM
[28]
  GI50: 17.2 µM
  TGI: 35.4 µM
[29]
  GI50: 28.9 µM
  TGI: > 100 µM
[30]
  GI50: 13.7 µM
  TGI: 31 µM
[31]
  GI50: 15.4 µM
  TGI: 38.7 µM
[32]
  GI50: 22 µM
  TGI: 65.8 µM
[33]
  GI50: 11.7 µM
  TGI: 39.5 µM
[34]
  GI50: 20 µM
  TGI: > 100 µM
[35]
  GI50: > 100 µM
  TGI: > 100 µM
[36]
  GI50: 18.1 µM
  TGI: 44 µM
[37]
  GI50: 14.4 µM
  TGI: 28.5 µM
[38]
  GI50: 17.1 µM
  TGI: 34.2 µM
[39]
  GI50: 14.4 µM
  TGI: 28.4 µM
[40]
  GI50: 14.9 µM
  TGI: 29.7 µM
[41]
  GI50: 22.5 µM
  TGI: 56.3 µM
[42]
  GI50: 25.4 µM
  TGI: > 100 µM
[43]
  GI50: 15.3 µM
  TGI: 78.3 µM
[44]
  GI50: 25.5 µM
  TGI: 89.7 µM
[45]
  GI50: 15.2 µM
  TGI: 28.8 µM
[46]
  GI50: 23.7 µM
  TGI: 65.1 µM
[47]
  GI50: 23.9 µM
  TGI: 61.7 µM
[48]
  GI50: 22.2 µM
  TGI: 55.6 µM
[49]
  GI50: 26 µM
  TGI: > 100 µM
[50]
  GI50: 39.3 µM
  TGI: > 100 µM
[51]
  GI50: 6.22 µM
  TGI: 32.5 µM
[52]
  GI50: 30 µM
  TGI: > 100 µM
[53]
  GI50: 13.8 µM
  TGI: 26.7 µM
[54]
  GI50: 18.6 µM
  TGI: 38.6 µM
[55]
  GI50: 18.6 µM
  TGI: 39.1 µM
[56]
  GI50: 16.6 µM
  TGI: 36.1 µM
